Measurements published in patent publication US20240116985A1, “STAPLED PEPTIDES AND METHODS THEREOF” (priority 2020, published 2024).
Like-named read-outs stand apart in the source and are kept apart here.

Experiments:
CHI Log D procedure = assay type: physicochemical; conditions: for chromatographic logD: pH 7.4, CHI Log D
[1] = molecular target: T1, beta-catenin/TCF4 engagement (Homo sapiens, UniProt P35222); assay: Nano-BRET target engagement assay (B-cat-Halo & TCF4-Luc in HEK293 cells); assay type: cell-based; conditions: read-out: NanoBRET Abs IC50
T1 construct: expressed in transfected cells; host or cells: HEK293
T1 sequence (P35222 1-781): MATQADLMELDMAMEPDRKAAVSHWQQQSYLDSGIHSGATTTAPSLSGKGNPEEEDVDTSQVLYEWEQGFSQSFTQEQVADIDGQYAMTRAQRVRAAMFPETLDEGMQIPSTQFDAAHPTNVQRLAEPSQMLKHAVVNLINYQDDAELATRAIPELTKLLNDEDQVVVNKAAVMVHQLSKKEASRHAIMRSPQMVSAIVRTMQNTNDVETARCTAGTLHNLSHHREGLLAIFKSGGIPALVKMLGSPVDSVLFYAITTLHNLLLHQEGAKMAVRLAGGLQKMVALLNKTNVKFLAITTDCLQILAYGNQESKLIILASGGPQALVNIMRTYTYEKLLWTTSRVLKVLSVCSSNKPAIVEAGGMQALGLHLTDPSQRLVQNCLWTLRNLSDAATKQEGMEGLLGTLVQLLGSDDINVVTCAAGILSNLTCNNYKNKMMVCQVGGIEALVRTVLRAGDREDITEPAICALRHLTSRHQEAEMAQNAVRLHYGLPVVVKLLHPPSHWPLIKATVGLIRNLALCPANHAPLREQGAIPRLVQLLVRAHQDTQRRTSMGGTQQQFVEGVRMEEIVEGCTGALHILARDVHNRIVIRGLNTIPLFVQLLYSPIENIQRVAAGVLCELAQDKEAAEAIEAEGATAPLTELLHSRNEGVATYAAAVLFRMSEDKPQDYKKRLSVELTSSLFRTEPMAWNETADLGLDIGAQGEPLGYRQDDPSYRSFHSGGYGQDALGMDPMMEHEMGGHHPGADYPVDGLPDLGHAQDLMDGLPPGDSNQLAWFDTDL

[2] = molecular target: T2, full-length beta-Catenin (Uniprot ID P35222) (Homo sapiens, UniProt P35222); assay: Fluorescence polarization IC50 (beta-catenin / 5FAM-TCF4 10-53 competition); assay type: binding; conditions: read-out: beta-Catenin FP IC50
T2 construct: 10 nM full-length beta-Catenin (Uniprot ID P35222)
T2 sequence (P35222 1-781): T1 sequence (P35222 1-781)

Compound | IC50 ([1]; absolute IC50) [nM] | IC50 ([2]; fluorescence polarization) [nM] | further results
CC(=O)N[C@@H](Cc1ccccc1)C(=O)N[C@@H](CC(=O)O)C(=O)N[C@@H](C)C(=O)N[C@]1(C)CCCCCCC=CCOC(=O)N2CC(C(=O)N[C@@H](Cc3ccccc3)C(=O)N[C@@H](Cc3c[nH]c4ccccc34)C(=O)N[C@@H](CCC(N)=O)C(N)=O)(C2)NC(=O)[C@H](C(C)C)NC(=O)[C@H](Cc2ccccc2)NC(=O)[C@H](C)NC(=O)[C@H](C)NC(=O)[C@H](CC(=O)O)NC(=O)[C@H](CC(=O)O)NC1=O (single isomer, unassigned) [I-39, Ac-Phe-Asp-Ala-R8-Asp-Asp-Ala-Ala-Phe-Val-Az-Phe-Trp-Gln-NH2] |  |  | chromatographic logD (CHI Log D procedure): 1.26
CCCC[C@@H]1NC(=O)[C@H](CC(=O)O)NC(=O)[C@](C)(NC(=O)[C@@H](NC(=O)[C@H](CC(=O)O)NC(=O)[C@H](C)NC(C)=O)[C@@H](C)CC)CCN(C)C(=O)OCC=CCCCCC[C@@](C)(C(=O)N[C@@H](Cc2ccccc2)C(=O)N[C@@H](Cc2c[nH]c3ccccc23)C(=O)N[C@@H](Cc2c[nH]cn2)C(N)=O)NC(=O)[C@H](CCC(N)=O)NC(=O)[C@H](Cc2ccccc2)NC(=O)[C@H](C)NC(=O)[C@H](C)NC1=O [I-68, Ac-Ala-Asp-Ile-RdN-Asp-nLeu-Ala-Ala-Phe-Gln-S7-Phe-Trp-His-NH2] |  |  | CHI Log D (CHI Log D procedure; pH 7.4): 1.553
CC(=O)N[C@@H](Cc1ccccc1)C(=O)N[C@@H](CC(=O)O)C(=O)N[C@]1(C)CCCCCCC=CCCC[C@@](C)(C(=O)N[C@@H](C)C(=O)N[C@@H](Cc2ccccc2)C(=O)N[C@@H](Cc2c[nH]c3ccccc23)C(=O)N[C@@H](CCC(N)=O)C(N)=O)NC(=O)[C@H](Cc2ccccc2)NC(=O)[C@H](C)NC(=O)[C@H](C)NC(=O)[C@H](CC(=O)O)NC(=O)[C@H](CC(=O)O)NC(=O)[C@H](C)NC1=O (single isomer, unassigned) [I-47, Ac-Phe-Asp-R8-Ala-Asp-Asp-Ala-Ala-Phe-S5-Ala-Phe-Trp-Gln-NH2] |  |  | chromatographic logD (CHI Log D procedure): 1.28
CC(=O)N1CCC[C@]12CC=CCCCC1(CCCC=CCCCOC(=O)N3CC[C@@](C(=O)N[C@@H](Cc4ccccc4C(F)(F)F)C(=O)N[C@@H](Cc4csc5ccccc45)C(=O)N[C@@H](C)C(N)=O)(C3)NC(=O)[C@H](CC(C)C)NC(=O)[C@H](Cc3ccccc3)NC(=O)[C@H](C)NC(=O)[C@H](CCC(=O)N3CCC(N4CCCCC4)CC3)NC(=O)[C@H](Cc3cccc(C(=O)O)c3)NC(=O)[C@H](CC(=O)O)NC1=O)NC(=O)[C@H](CC(C)(C)C)NC(=O)[C@H](CC(=O)O)NC2=O (stereo partly drawn) [I-2317, Ac-PL3-Asp-Npg-B5-Asp-3COOHF-[4Pippip]GlnR-Ala-Phe-Leu-PyrS2-2F3MeF-BztA-Ala-NH2] | 18800 | 12 | 
CC(=O)N1CCC[C@]12CC=CCCCC1(CCCC=CCCCOC(=O)N3CC[C@@](C(=O)N[C@@H](Cc4ccccc4Cl)C(=O)N[C@@H](Cc4csc5ccccc45)C(=O)N[C@H](CO)Cc4ccccc4)(C3)NC(=O)[C@H](CC(N)=O)NC(=O)[C@H](Cc3ccccc3)NC(=O)[C@H](C)NC(=O)[C@H](C)NC(=O)[C@H](CC(=O)O)NC(=O)[C@H](CC(=O)O)NC1=O)NC(=O)[C@H](CC(C)(C)C)NC(=O)[C@H](CC(=O)O)NC2=O (stereo partly drawn) [I-1083, Ac-PL3-Asp-Npg-B5-Asp-Asp-Ala-Ala-Phe-Asn-PyrS2-2C1F-BztA-Pheo1] | 18800 |  | IC50 [2]: 8 nM
CC(=O)N1CCC[C@]12CC=CCCCC1(CCCC=CCCCOC(=O)N3CC[C@@](C(=O)N[C@@H](Cc4ccsc4)C(=O)N[C@@H](Cc4csc5ccccc45)C(=O)N[C@@H](CCC(N)=O)C(N)=O)(C3)NC(=O)[C@H](CCO)NC(=O)[C@H](Cc3ccccc3)NC(=O)[C@H](C)NC(=O)[C@H](C)NC(=O)[C@H](Cc3c(F)c(F)c(F)c(F)c3F)NC(=O)[C@H](CC(=O)O)NC1=O)NC(=O)[C@H](CC(C)(C)C)NC(=O)[C@H](CC(=O)O)NC2=O (stereo partly drawn) [I-1791, Ac-PL3-Asp-Npg-B5-Asp-Pff-Ala-Ala-Phe-Hse-PyrS2-3Thi-BztA-Gln-NH2] | > 20000 | 182 | 
CC(=O)NCCCC[C@@H]1NC(=O)[C@H](Cc2ccccc2)NC(=O)[C@H](C)NC(=O)[C@H](C)NC(=O)[C@H](Cc2cccc(C(=O)O)c2)NC(=O)[C@H](CC(=O)O)NC(=O)C2(CCCC=CCCCOC(=O)N3CC[C@@](C(=O)N[C@@H](Cc4ccccc4C(F)(F)F)C(=O)N[C@@H](Cc4csc5ccccc45)C(=O)N[C@@H](CCC(=O)N4CCOCC4)C(N)=O)(C3)NC1=O)CCCC=CC[C@]1(CCCN1C(C)=O)C(=O)N[C@@H](CC(=O)O)C(=O)N[C@@H](CC(C)(C)C)C(=O)N2 (stereo partly drawn) [I-2549, Ac-PL3-Asp-Npg-B5-Asp-3COOHF-Ala-Ala-Phe-AcLys-PyrS2-2F3MeF-BztA-MorphGln-NH2] | 2500 | 13 | 
CC(=O)N1CCC[C@]12CC=CCCCC1(CCCC=CCCCOC(=O)N3CC[C@@](C(=O)N[C@@H](Cc4ccsc4)C(=O)N[C@@H](Cc4csc5ccccc45)C(=O)N[C@@H](CCC(N)=O)C(=O)N[C@@H](CCCCNC(=O)COCCOCCNC(=O)CC[C@@H](C)[C@H]4CC[C@H]5[C@@H]6CC[C@@H]7C[C@H](O)CC[C@]7(C)[C@H]6CC[C@]45C)C(N)=O)(C3)NC(=O)[C@H](CC(C)C)NC(=O)[C@H](Cc3ccccc3)NC(=O)[C@H](C)NC(=O)[C@H](C)NC(=O)[C@H](CC(=O)O)NC(=O)[C@H](CC(=O)O)NC1=O)NC(=O)[C@H](CC(C)(C)C)NC(=O)[C@H](CC(=O)O)NC2=O (stereo partly drawn) [I-1478, Ac-PL3-Asp-Npg-B5-Asp-Asp-Ala-Ala-Phe-Leu-PyrS2-3Thi-BztA-Gln-[lithocholate-PEG2]-Lys-NH2] | 17100 | 75 | 
CC(=O)N1CCC[C@]12CC=CCCCC1(CCCC=CCCCOC(=O)N3CC[C@@](C(=O)N[C@@H](Cc4ccsc4)C(=O)N[C@@H](Cc4ccc(C)c(C)c4)C(=O)N[C@@H](C)C(N)=O)(C3)NC(=O)[C@H](C(C)C)NC(=O)[C@H](Cc3ccccc3)NC(=O)[C@H](C)NC(=O)[C@H](CCC(N)=O)NC(=O)[C@H](Cc3cccc(C(=O)O)c3)NC(=O)[C@H](CC(=O)O)NC1=O)NC(=O)[C@H](CC(C)(C)C)NC(=O)[C@H](CC(=O)O)NC2=O (stereo partly drawn) [I-2292, Ac-PL3-Asp-Npg-B5-Asp-3COOHF-Gln-Ala-Phe-Val-PyrS2-3Thi-34MeF-Ala-NH2] | 2700 | 9 | 
CC(=O)N1CCC[C@]12CC=CCCCC1(CCCC=CCCCOC(=O)N3CC[C@@](C(=O)N[C@@H](Cc4ccsc4)C(=O)N[C@@H](Cc4csc5ccccc45)C(=O)N[C@@H](CCC(N)=O)C(N)=O)(C3)NC(=O)[C@H](CC(N)=O)NC(=O)[C@H](Cc3ccccc3)NC(=O)[C@H](C)NC(=O)[C@H](C)NC(=O)[C@H](CCCNC(=N)N)NC(=O)[C@H](CC(=O)O)NC1=O)NC(=O)[C@H](CC(C)(C)C)NC(=O)[C@H](CC(=O)O)NC2=O (stereo partly drawn) [I-1891, Ac-PL3-Asp-Npg-B5-Asp-Arg-Ala-Ala-Phe-Asn-PyrS2-3Thi-BztA-Gln-NH2] |  | 40 | IC50 [1]: > 20000 nM
CC(=O)N1CCC[C@]12CC=CCCCCC1(CCCCC=CCOC(=O)N3CC[C@@](C(=O)N[C@@H](Cc4ccccc4C(F)(F)F)C(=O)N[C@@H](Cc4csc5ccccc45)C(=O)N[C@@H](CCC(N)=O)C(N)=O)(C3)NC(=O)[C@H](CC(C)C)NC(=O)[C@H](Cc3ccccc3)NC(=O)[C@H](C)NC(=O)[C@H](C)NC(=O)[C@H](Cc3cccc(C(=O)O)c3)NC(=O)[C@H](CC(=O)O)NC1=O)NC(=O)[C@H](CC(C)(C)C)NC(=O)[C@H](CC(=O)O)NC2=O (stereo partly drawn) [I-2518, Ac-PL3-Asp-Npg-B6-Asp-3COOHF-Ala-Ala-Phe-Leu-PyrS-2F3MeF-BztA-Gln-NH2] | > 20000 | 212 | 
